These compounds were tested against Carbonic anhydrase 9 (Homo sapiens, UniProt Q16790) (assay: Inhibition of human carbonic anhydrase 9 by stopped flow CO2 hydration method).

Structure (SMILES) | Ki [nM]
NS(=O)(=O)c1ccc2nc(NC(=S)NCCNC(=S)Nc3nc4ccc(S(N)(=O)=O)cc4s3)sc2c1 | 2.1
N#Cc1cnn(CC(=O)Nc2nc3ccc(S(N)(=O)=O)cc3s2)c1NC(=S)Nc1ccccc1 | 2.8
CSc1nn(CC(=O)Nc2nc3ccc(S(N)(=O)=O)cc3s2)c2ncnc(N)c12 | 2.7
Nc1cc(=O)[nH]c(SCC(=O)Nc2nc3ccc(S(N)(=O)=O)cc3s2)n1 | 253
NS(=O)(=O)c1ccc2nc(NC(=O)Cn3ncc4c(=O)[nH]cnc43)sc2c1 | 4.1
CSc1nn(CC(=O)Nc2nc3ccc(S(N)(=O)=O)cc3s2)c(NC(=S)Nc2ccccc2)c1C#N | 3.9
CSc1nn(CC(=O)Nc2nc3ccc(S(N)(=O)=O)cc3s2)c2nc[nH]c(=O)c12 | 4.3
Cc1ccc(OCc2nnc(SCC(=O)Nc3nc4ccc(S(N)(=O)=O)cc4s3)n2N)cc1Cl | 67.3

Further compounds by falling Ki, results first:

Ki [nM] | Structure (SMILES)
295 | CSc1nn(CC(=O)Nc2nc3ccc(S(N)(=O)=O)cc3s2)c(N)c1C#N
282 | NS(=O)(=O)c1ccc2nc(NC(=O)CSc3nc(O)cc(=O)[nH]3)sc2c1
276 | N#Cc1cnn(CC(=O)Nc2nc3ccc(S(N)(=O)=O)cc3s2)c1N
244 | Nn1c(Cc2ccccc2)nnc1SCC(=O)Nc1nc2ccc(S(N)(=O)=O)cc2s1
172 | Nc1nc(SCC(=O)Nc2nc3ccc(S(N)(=O)=O)cc3s2)nc2[nH]ncc12
135 | Nn1c(COc2ccc(Cl)cc2Cl)nnc1SCC(=O)Nc1nc2ccc(S(N)(=O)=O)cc2s1
4.8 | NS(=O)(=O)c1ccc(NCC(=O)Nc2nc3ccc(S(N)(=O)=O)cc3s2)cc1
2.8 | Nc1ncnc2c1cnn2CC(=O)Nc1nc2ccc(S(N)(=O)=O)cc2s1
2.6 | NS(=O)(=O)c1ccc2nc(NC(=S)N3CCN(C(=S)Nc4nc5ccc(S(N)(=O)=O)cc5s4)CC3)sc2c1
2.5 | CS/C(=N\c1nc2ccc(S(N)(=O)=O)cc2s1)NCCN/C(=N/c1nc2ccc(S(N)(=O)=O)cc2s1)SC
2.3 | CS/C(=N\c1nc2ccc(S(N)(=O)=O)cc2s1)N1CCN(/C(=N/c2nc3ccc(S(N)(=O)=O)cc3s2)SC)CC1

Reference: ChEMBL document CHEMBL3593181, “Design and synthesis of benzothiazole-6-sulfonamides acting as highly potent inhibitors of carbonic anhydrase isoforms I, II, IX and XII” (Bioorg Med Chem, 2015)
